SMILES strings stand for the structures. Entries after “also recorded” stand apart in the source; their conditions may differ.

One data set has as its system ATXN2-Q22. Nature of the data set: BAC-Q22 mice, ATXN2 western blot. It is filed as in vivo. As to conditions: for reduction of ATXN2 protein abundance: ATXN2-BAC mice, IP, 17-DMAG 100 mg/kg, HSP990 4 mg/kg; for ATXN2 abundance: BAC-Q22 mice, IP every other day, 17-DMAG 100 mg/kg 16 days, HSP990 4 mg/kg 10 days. The procedure: (§1) BAC-ATXN2-Q22 (BAC-Q22) mice were used as previously described. BAC-Q22 are transgenic for the complete human ATXN2 gene with all introns and exons, including 16 kb upstream sequence driving ATXN2 expression and the complete 3′-UTR. The mice used in this study were maintained on a mixed B6;D2 background with backcrossing to wildtype vendor-purchased (Jackson Laboratories) mice every five generations. Mice were treated with 17-DMAG or HSP990 by intraperitoneal (IP) injection, 200-300 μl total volume. 17-DMAG was diluted in 40% DMSO and 0.05% Tween 20 and mice received 100 mg/kg 17-DMAG. HSP990 was diluted in 0.6% DMSO and 0.05% Tween 20 and mice received 4 mg/kg HSP990. Control treated mice included vehicle alone. Mice were treated repeatedly as described in Results. Mouse husbandry and surgical procedures were in accordance to Institutional Animal Care and Use Committee (IACUC) approved protocols.
Proteins were prepared, separated on precast polyacrylamide gels (Bio-Rad), transferred to Hybond (Amersham) and detected by ECL (Amersham) as previously described.
(§2) Antibodies included the following: mouse monoclonal anti-Ataxin-2 antibody (Clone 22/Ataxin-2) (BD Biosciences, 611378), rabbit monoclonal anti-Hsp70 antibody (EPR16892) (Abcam, ab181606), mouse monoclonal anti-β-Actin-peroxidase antibody (clone AC-15) (Sigma-Aldrich, A3854), rabbit polyclonal anti-Staufen antibody (Novus Biologicals, NBP1-33202), mouse monoclonal anti-CHOP (L63F7) antibody (Cell Signaling Technology, 2895), rabbit polyclonal anti-phospho-eIF2a (Ser51) antibody (Cell Signaling Technology, 9721), rabbit polyclonal anti-mTOR antibody (Cell Signaling Technology, 2972), rabbit polyclonal anti-SQSTM1/p62 antibody (Cell Signaling Technology, 5114), rabbit polyclonal anti-LC3B antibody (Novus Biologicals, NB100-2220), rabbit monoclonal anti-BiP antibody (C50B12) (Cell Signaling Technology, 3177). Secondary antibodies included peroxidase-conjugated horse anti-mouse IgG (Vector Laboratories, PI-2000) and peroxidase AffiniPure goat anti-rabbit IgG (Jackson ImmunoResearch Laboratories, 111-035-144).
Since 17-DMAG reduced expression of both the wildtype and mutant ATXN2 proteins, its effects were tested using only ATXN2-BAC mice harboring the non-mutant human ATXN2-Q22 gene (BAC-Q22 mice). Reliable detection of mutant ATXN2 protein by western blot in samples isolated from SCA2 BAC mice is possible, but it is challenging and involves use of the 1C2 antibody. To test efficacy of 17-DMAG in the wildtype ATXN2 mice, 27 wk old BAC-Q22 mice were treated (n=4 per group, 2 males, 2 females) every other day over 16-days (days 1, 3, 5, 7, 9, 11, 13, 15) then sacrificed on day 16. […] Three blots were quantified.
On the technique in general: Immunoblotting shows a protein as a band on a membrane.

The conditions of data set [1]: cited from earlier work.
Data set [2] has as its system STAU1, mTOR, p62, LC3b, CHOP, eIF3α, BiP. Briefly: Western blot of STAU1, autophagy and UPR proteins in ATXN2-Q58 HEK-293 KI cells. It is filed as cell-based.
Source text: as §2
To determine if lowering ATXN2-Q58 in HEK-293 KI cells could restore pathways that are abnormal in SCA2, several proteins were evaluated by western blotting and RNAs by quantitative PCR following 17-DMAG treatment. […] Probabilities are from one-way ANOVA and post-hoc Bonferroni corrected t-tests: ns, not significant; *, p<0.05; **, p<0.01, ***, p<0.001. […]

The test system of data set [3] is HSP70. Nature of the data set: BAC-Q22 mice, HSP70 western blot. It counts as in vivo. As to conditions: IP every other day, 17-DMAG 100 mg/kg, HSP990 4 mg/kg. As to the method: as §1
Proteins were prepared, separated on precast polyacrylamide gels (Bio-Rad), transferred to Hybond (Amersham) and detected by ECL (Amersham) as previously described. […]
Since 17-DMAG reduced expression of both the wildtype and mutant ATXN2 proteins, its effects were tested using only ATXN2-BAC mice harboring the non-mutant human ATXN2-Q22 gene (BAC-Q22 mice). […] Three blots were quantified.

For data set [4], the system named is HSP70. Nature of the data set: Western blot of HSP70 in cells (HSP90 target engagement). It counts as cell-based. To be noted: cultured cells, western blotting.
Source text: Probabilities are from one-way ANOVA and post-hoc Bonferroni corrected t-tests: ns, not significant; **, P<0.01.
Probabilities are from one-way ANOVA and post-hoc Bonferroni corrected t-tests: ns, not significant; *, p<0.05; **, p<0.01, ***, p<0.001. The n number of blots ranged from 3 to 9.
Another data set has as its system ATXN2-luc mRNA. Nature of the data set: ATXN2-luc mRNA abundance in H2 cells by quantitative PCR. It counts as cell-based. As to conditions: 1 and 10 uM, 48 hrs.
Data set [5] concerns endogenous non-mutant ATXN2 protein. Briefly: Western blot of endogenous non-mutant ATXN2 protein in HEK-293 cells. As to conditions: western blotting. It counts as cell-based.
A further data set deals with mutant ATXN2-Q58 protein. Briefly: Western blot of mutant ATXN2-Q58 protein in HEK-293 KI cells. It is filed as cell-based. To be noted: western blotting.
Another data set deals with ATXN3. To be noted: ATXN3-135Q transgenic mice, cited from earlier work.
Data set [6] can be described thus: BAC-Q22 mice, survival / tolerability. It counts as in vivo. To be noted: IP every other day, 17-DMAG 100 mg/kg, HSP990 4 mg/kg. The procedure: as §1
Since 17-DMAG reduced expression of both the wildtype and mutant ATXN2 proteins, its effects were tested using only ATXN2-BAC mice harboring the non-mutant human ATXN2-Q22 gene (BAC-Q22 mice). Reliable detection of mutant ATXN2 protein by western blot in samples isolated from SCA2 BAC mice is possible, but it is challenging and involves use of the 1C2 antibody. […] Three blots were quantified. […]

For data set [7] the following is noted: cited from earlier work. The source holds these as a separate data set.

Source text for ATXN2-luc mRNA: Total RNA was extracted from cells cultured in 24-well plates using the RNeasy Mini-Kit (Qiagen Inc.) according to the manufacturer's protocol. DNAse I treated RNAs were used to synthesize cDNA using ProtoScript cDNA synthesis kit (New England Biolabs Inc.). Sets of primers used for qPCR included ATXN2 primers ATXN2-F (5′-[sequence]-3′) & ATXN2-R (5′-[sequence]-3′), ATP1A2 primers ATP1A2-F (5′-[sequence]-3′) & ATP1A2-R (5′-[sequence]-3′), GAPDH primers GAPDH-F133 (5′-[sequence]-3′) & GAPDH-R333 (5′-[sequence]-3′), and mouse Actb primers Actb-F (5′-[sequence]-3′) & Actb-R (5′-[sequence]-3′). qPCR was performed in the Bio-Rad CFX96 instrument (Bio-Rad Inc.) with the Power SYBR Green PCR master mix (Applied Biosystems Inc.). PCR amplification was carried out for 45 cycles. Cycling parameters were denaturation (95° C. for 10 s), annealing (60° C. for 10 s), extension (72° C. for 40 s).
The ATXN2-luc mRNA abundance was determined by quantitative PCR using primers that amplify the luciferase gene. Probabilities are from one-way ANOVA and post-hoc Bonferroni corrected t-tests: ns, not significant; **, P<0.01.
Source text for mutant ATXN2-Q58 protein: The n number of blots ranged from 3 to 9.

Regarding `CO[C@H]1/C=C\C=C(/C)C(=O)NC2=CC(=O)C(NCCN(C)C)=C(C[C@@H](C)C[C@H](OC)[C@H](O)[C@@H](C)/C=C(\C)[C@@H]1OC(N)=O)C2=O` [17-DMAG, 17-dimethylaminoethylamino-17-demethoxygeldanamycin], in the data set with ATXN2-Q22, the “reduction of ATXN2 protein abundance” value amounted to 90% and the ATXN2 abundance entry is recorded as “reduced ATXN2 abundance”. Also, in data set [1], the oral bioavailability entry is “orally bioavailable”. For the same compound, in data set [2], the BiP result is listed as “further elevated BiP”; the “abundance of STAU1, autophagy marker proteins (mTOR, p62, LC3b) and UPR proteins CHOP and eIF3α” value is “restored abundance”. In addition, the HSP70 entry with HSP70 [3] was “HSP70 induction”. Also, in the data set on HSP70 [4], the HSP70 result is “elevated HSP70; also recorded: increase in HSP70”. Also, the ATXN2-luc transcription entry in the data set with ATXN2-luc mRNA was “reduction of ATXN2-luc transcription”. Also, in data set [5], the “expression of endogenous non-mutant ATXN2 protein” value is listed as “reduced the expression; also recorded: reduction of endogenous non-mutant ATXN2 protein”. For the same compound, the “mutant ATXN2-Q58 protein” value in the data set on mutant ATXN2-Q58 protein was “reduced the expression; also recorded: significantly reduced mutant ATXN2 protein; also recorded: reduction of ATXN2 protein”. Moreover, the ATXN3 protein abundance result with ATXN3 (CNS tissues) is “reduced ATXN3 protein abundance in CNS tissues”. Further, the motor coordination result in the data set with ATXN3 is on record as “improved motor coordination”. The survival / tolerability result in data set [6] is recorded as “well-tolerated”.
As to `COc1cccc(-c2cc(F)ccc2[C@H]2Cc3nc(N)nc(C)c3C(=O)N2)n1` [HSP990], in the data set with ATXN2-Q22, the “reduction of ATXN2 protein abundance” value is 80% and the ATXN2 abundance entry is recorded as “reduced ATXN2 abundance”. In addition, the HSP70 result in the data set on HSP70 [3] is “increased HSP70”. Besides, the “toxicity in clinical trial” value in data set [7] is recorded as “dose-limiting neurotoxicities”. Also, in [6], the survival / tolerability result is given as “the two females in the HSP990 treatment group did not survive; also recorded: half of the mice treated with HSP990 did not survive treatment”.
